Data on one compound can be found in ChEMBL document CHEMBL1150731, “Constituents of Tritonia crocosmaeflora, II. Tricrozarin B, an antitumor naphthazarin derivative” (J Nat Prod, 1987).

As usually defined, the T/C is the result in the treated group divided by that in the control group, in per cent. The term IC50 denotes the midpoint of a concentration-inhibition curve. Low readings indicate greater potency, high ones weaker potency.

Converted amounts (≈) assume the structure as drawn.

The subject of one test is CCRF S-180. The experiment in a line: Antitumor activity against mouse S180 cells xenografted ICR mouse at 50 mg/kg, ip relative to control. Type of test: functional. The settings on record: route intraperitoneal.
Test [1] can be described thus: Cytotoxicity against human HeLaS3 cells. The class given is functional, cell-based. The settings on record: HeLa S3.

For the compound `COC1=C(OC)C(=O)c2c(O)c(OC)cc(O)c2C1=O` [TRICROZARIN B], the T/C with CCRF S-180 stood at 146%. In addition, the IC50 in test [1] was determined as 7 ng/mL (≈ 0.025 µM).
